Measurements from patent publication US8252821B2, “Bioavailable capsule compositions of amorphous alpha-(N-sulfonamido)acetamide compound” (Bristol-Myers Squibb Company, priority 2009, dated 2012).

Legend:
Format in all cases: physicochemical
[1] = Solubility of solubilized capsule formulations in FeSSIF at 37° C.; details: FeSSIF pH 5.0, 37° C.
[2] = Solubility of solubilized capsule formulations in SGF at 37° C.
[3] = Aqueous solubility of the active compound; details: water; at about room temperature
[4] = Solubility of solubilized capsule formulations in FaSSIF at 37° C.; details: FaSSIF pH 6.5, 37° C.

- ACTIVE COMPOUND Concentration ([1]; 5 Min.): 9.7 µg/mL
- ACTIVE COMPOUND Concentration ([1]; 15 Min.): 11.5 µg/mL
- ACTIVE COMPOUND Concentration ([1]; 30 Min.): 13.3 µg/mL
- ACTIVE COMPOUND Concentration ([1]; 60 Min.): 15.3 µg/mL
- ACTIVE COMPOUND Concentration ([2]; 5 Min.): 0.0 µg/mL
- ACTIVE COMPOUND Concentration ([2]; 15 Min.): 4.6 µg/mL
- ACTIVE COMPOUND Concentration ([2]; 24 Hr.): 1.0 µg/mL
- ACTIVE COMPOUND Concentration ([2]; 30 Min.): 1.6 µg/mL
- ACTIVE COMPOUND Concentration ([2]; 60 Min.): 1.0 µg/mL
- solubility [3]: < 1 µg/mL
- ACTIVE COMPOUND Concentration ([4]; 5 Min.): 2.5 µg/mL
- ACTIVE COMPOUND Concentration ([4]; 15 Min.): 3.8 µg/mL
- ACTIVE COMPOUND Concentration ([4]; 24 Hr.): 7.7 µg/mL
- ACTIVE COMPOUND Concentration ([4]; 30 Min.): 4.6 µg/mL
- ACTIVE COMPOUND Concentration ([4]; 60 Min.): 6.0 µg/mL
SMILES: NC(=O)[C@@H](CCC(F)(F)F)N(Cc1ccc(-c2ncon2)cc1F)S(=O)(=O)c1ccc(Cl)cc1 [Active Compound, (2R)-2-[[(4-chlorophenyl)sulfonyl][[2-fluoro-4-(1,2,4-oxadiazol-3-yl)phenyl]methyl]amino]-5,5,5-trifluoropentanamide]
